{
  "source": "patent US8563530B2",
  "about": "“Purine nucleoside phosphoramidate” (Gilead Pharmassel LLC, priority 2010, dated 2013)",
  "key": {"[1]": {"tested_on": "HCV replicon RNA-containing Huh7 cells (clone A cells)", "experiment": "HCV replicon assay", "type": "cell-based", "conditions": "for Replicon assay result in combination with compound 1: synergism: assayed in combination with compound 1", "method": "HCV replicon assay. HCV replicon RNA-containing Huh7 cells (clone A cells; Apath, LLC, St. Louis, Mo.) were kept at exponential growth in Dulbecco's modified Eagle's medium (high glucose) containing 10% fetal bovine serum, 4 mM L-glutamine and 1 mM sodium pyruvate, 1× nonessential amino acids, and G418 (1,000 μg/ml). Antiviral assays were performed in the same medium without G418. Cells were seeded in a 96-well plate at 1,500 cells per well, and test compounds were added immediately after seeding. Incubation time 4 days. At the end of the incubation step, total cellular RNA was isolated (RNeasy 96 kit; Qiagen). Replicon RNA and an internal control (TaqMan rRNA control reagents; Applied Biosystems) were amplified in a single-step multiplex RT-PCR protocol as recommended by the manufacturer.\nTo express the antiviral effectiveness of a compound, the threshold RT-PCR cycle of the test compound was subtracted from the average threshold RT-PCR cycle of the no-drug control (ΔCtHCV). A ΔCt of 3.3 equals a 1-log 10 reduction (equal to the 90% effective concentration [EC90]) in replicon RNA levels. The cytotoxicity of the test compound could also be expressed by calculating the ΔCtrRNA values. The ΔΔCt specificity parameter could then be introduced (ΔCtHCV−ΔCtrRNA), in which the levels of HCV RNA are normalized for the rRNA levels and calibrated against the no-drug control. Compound 1 was tested for its biological properties based on the preceding assay."}, "[2]": {"experiment": "GVS analysis (hygroscopicity)", "type": "physicochemical"}},
  "data": [
    {"compound": "COc1nc(N)nc2c1ncn2[C@@H]1O[C@H](CO[P@@](=O)(N[C@@H](C)C(=O)OC(C)C)Oc2ccccc2)[C@@H](O)[C@@]1(C)F", "note": "[Compound 1, SP-(2S)-isopropyl 2-(((((2R,3R,4R,5R)-5-(2-amino-6-methoxy-9H-purin-9-yl)-4-fluoro-3-hydroxy-4-methyltetrahydrofuran-2-yl)methoxy)(phenoxy)phosphoryl)amino)propanoate]", "values": [
      {"measurement": "EC90", "setting": "[1]; Hepatitis C virus, Huh-7, 96 h, clone A cells, incubation time 4 days, replicon RNA by RT-PCR, 1-log 10 reduction, read-out: CloneA EC90", "result": 20, "unit": "nM"}
    ]},
    {"compound": "COc1nc(N)nc2c1ncn2[C@@H]1O[C@H](CO[P@@](=O)(N[C@@H](C)C(=O)OC(C)C)Oc2ccccc2)[C@@H](O)[C@@]1(C)F.O", "note": "[Compound 1.H2O, (S)-2-{(S)-[(1R,4R,5R)-5-(2-Amino-6-methoxy-purin-9-yl)-4-(R)-fluoro-3-hydroxy-4-methyl-tetrahydro-furan-2-ylmethoxy]-phenoxy-phosphorylamino}-propionic acid isopropyl ester monohydrate]", "values": [
      {"measurement": "GVS hygroscopicity", "setting": "[2]", "result": "very low hygroscopicity"},
      {"measurement": "GVS reversible weight gain", "setting": "[2]; at 90% RH", "result": 0.47, "unit": "% w/w"}
    ]},
    {"compound": "CC(C)(C)OC(=O)N[C@H]1CCCCC/C=C\\[C@@H]2C[C@@]2(C(=O)NS(=O)(=O)C2CC2)NC(=O)[C@@H]2C[C@@H](OC(=O)N3Cc4cccc(F)c4C3)CN2C1=O", "note": "[ITMN-191]", "values": [
      {"measurement": "Replicon assay result in combination with compound 1: synergism", "setting": "[1]", "result": "synergism"}
    ]},
    {"compound": "CC(C)OC(=O)[C@H](C)N[P@](=O)(OC[C@H]1O[C@@H](n2ccc(=O)[nH]c2=O)[C@](C)(F)[C@@H]1O)Oc1ccccc1", "note": "[compound E]", "values": [
      {"measurement": "Replicon assay result in combination with compound 1: synergism", "setting": "[1]", "result": "synergism"}
    ]}
  ]
}
